Measurements published in publication PMC5218480 (PLoS ONE, 2017).

System: MV-4-11 cells
Assay: Gene expression microarray analysis (Affymetrix PrimeView) and GSEA
Type: cell-based, human
Set-up: RFU PODN (11730768_x_at) / Fold change /veh PODN (11730768_x_at) / RFU LINC00158 (11744669_a_at) / Fold change /veh LINC00158 (11744669_a_at) / RFU DUSP10 (11751237_a_at) / Fold change /veh DUSP10 (11751237_a_at) / RFU ID3 (11757404_x_at) / Fold change /veh ID3 (11757404_x_at) / RFU PLEKHG5 (11737974_s_at) / Fold change /veh PLEKHG5 (11737974_s_at) / RFU LRRC4B (11730491_at) / Fold change /veh LRRC4B (11730491_at) / RFU GIMAP4 (11747438_a_at) / Fold change /veh GIMAP4 (11747438_a_at) / RFU KRT8 (11758183_x_at) / Fold change /veh KRT8 (11758183_x_at) / RFU CNN1 (11734310_a_at) / Fold change /veh CNN1 (11734310_a_at) / RFU VPS37D (11726825_at) / Fold change /veh VPS37D (11726825_at) / RFU C10orf10 (11716522_x_at) / Fold change /veh C10orf10 (11716522_x_at) / RFU KIR2DL2 /// KIR2DL4 /// KIR2DL5A /// KIR2DL5B /// KIR2DS1 /// KIR2DS2 /// KIR2DS3 /// KIR2DS4 /// KIR3DL3 /// KIR3DL3 /// KIR3DS1 (11738374_at) / Fold change /veh KIR2DL2 /// KIR2DL4 /// KIR2DL5A /// KIR2DL5B /// KIR2DS1 /// KIR2DS2 /// KIR2DS3 /// KIR2DS4 /// KIR3DL3 /// KIR3DL3 /// KIR3DS1 (11738374_at) / RFU C1QL1 (11718748_at) / Fold change /veh C1QL1 (11718748_at) / RFU TMPRSS4 (11747572_a_at) / Fold change /veh TMPRSS4 (11747572_a_at) / RFU HAMP (11756126_x_at) / Fold change /veh HAMP (11756126_x_at) / RFU RNFT2 (11725882_a_at) / Fold change /veh RNFT2 (11725882_a_at) / RFU NR4A2 (11747474_a_at) / Fold change /veh NR4A2 (11747474_a_at) / RFU ABCC12 (11746883_a_at) / Fold change /veh ABCC12 (11746883_a_at) / RFU TMEM136 (11760407_x_at) / Fold change /veh TMEM136 (11760407_x_at) / RFU CLDN22 /// WWC2 (11732394_at) / Fold change /veh CLDN22 /// WWC2 (11732394_at) / RFU HLA-DPB1 (11760878_x_at) / Fold change /veh HLA-DPB1 (11760878_x_at) / RFU SPINT1 (11716480_a_at) / Fold change /veh SPINT1 (11716480_a_at) / RFU GAP43 (11754022_s_at) / Fold change /veh GAP43 (11754022_s_at) / RFU A4GNT (11735810_at) / Fold change /veh A4GNT (11735810_at) / RFU PRB3 (11715151_x_at) / Fold change /veh PRB3 (11715151_x_at) / RFU TUBB4B (11761932_at) / Fold change /veh TUBB4B (11761932_at) / RFU CAPN14 (11732068_a_at) / Fold change /veh CAPN14 (11732068_a_at) / RFU TMCC2 (11721928_a_at) / Fold change /veh TMCC2 (11721928_a_at) / RFU IRGQ (11745062_a_at) / Fold change /veh IRGQ (11745062_a_at) / RFU FAM174B (11720279_a_at) / Fold change /veh FAM174B (11720279_a_at) / RFU TMPRSS4 (11748680_a_at) / Fold change /veh TMPRSS4 (11748680_a_at) / RFU FAM212B (11763350_a_at) / Fold change /veh FAM212B (11763350_a_at) / RFU PLEKHG5 (11743358_a_at) / Fold change /veh PLEKHG5 (11743358_a_at) / RFU ZSCAN30 (11745921_a_at) / Fold change /veh ZSCAN30 (11745921_a_at) / RFU CMKLR1 (11741424_a_at) / Fold change /veh CMKLR1 (11741424_a_at) / RFU LOC101060620 /// MAPK8IP1 (11723275_at) / Fold change /veh LOC101060620 /// MAPK8IP1 (11723275_at) / RFU SPTSSB (11747773_x_at) / Fold change /veh SPTSSB (11747773_x_at) / RFU PRSS12 (11739890_at) / Fold change /veh PRSS12 (11739890_at) / RFU BIN1 (11741810_x_at) / Fold change /veh BIN1 (11741810_x_at) / RFU WNT11 (11732464_a_at) / Fold change /veh WNT11 (11732464_a_at) / RFU C10orf10 (11716521_a_at) / Fold change /veh C10orf10 (11716521_a_at) / RFU C5orf56 (11738089_at) / Fold change /veh C5orf56 (11738089_at) / RFU CYB561 (11721691_x_at) / Fold change /veh CYB561 (11721691_x_at) / RFU ANKRD19P (11752326_a_at) / Fold change /veh ANKRD19P (11752326_a_at) / RFU OR2T12 /// OR2T33 /// OR2T8 (11738714_s_at) / Fold change /veh OR2T12 /// OR2T33 /// OR2T8 (11738714_s_at) / RFU VCAN (11748164_a_at) / Fold change /veh VCAN (11748164_a_at) / RFU JSRP1 (11732532_at) / Fold change /veh JSRP1 (11732532_at) / RFU KRTAP10-11 (11738290_x_at) / Fold change /veh KRTAP10-11 (11738290_x_at) / RFU MYO3A (11730013_a_at) / Fold change /veh MYO3A (11730013_a_at) / RFU EBF3 (11725865_a_at) / Fold change /veh EBF3 (11725865_a_at) / RFU CAMK2N1 (11719241_x_at) / Fold change /veh CAMK2N1 (11719241_x_at) / RFU C5orf56 (11738088_a_at) / Fold change /veh C5orf56 (11738088_a_at) / RFU OLFML3 (11715873_a_at) / Fold change /veh OLFML3 (11715873_a_at) / RFU LOC100653217 /// NTM (11731650_a_at) / Fold change /veh LOC100653217 /// NTM (11731650_a_at) / RFU MAPK11 (11762145_a_at) / Fold change /veh MAPK11 (11762145_a_at) / RFU FIZ1 (11724087_x_at) / Fold change /veh FIZ1 (11724087_x_at) / RFU OASL (11726364_x_at) / Fold change /veh OASL (11726364_x_at) / RFU SOX15 (11748057_x_at) / Fold change /veh SOX15 (11748057_x_at) / RFU CD79A (11719716_a_at) / Fold change /veh CD79A (11719716_a_at) / RFU HIST1H1D (11736915_at) / Fold change /veh HIST1H1D (11736915_at) / RFU CASKIN2 (11723855_a_at) / Fold change /veh CASKIN2 (11723855_a_at) / RFU LOC730098 (11760151_x_at) / Fold change /veh LOC730098 (11760151_x_at) / RFU OR4N2 (11742367_at) / Fold change /veh OR4N2 (11742367_at) / RFU PRRT2 (11749266_a_at) / Fold change /veh PRRT2 (11749266_a_at) / RFU SNX32 (11753110_a_at) / Fold change /veh SNX32 (11753110_a_at) / RFU CDHR5 (11726645_a_at) / Fold change /veh CDHR5 (11726645_a_at) / RFU RCAN1 (11760418_a_at) / Fold change /veh RCAN1 (11760418_a_at) / RFU FAM167A (11723789_a_at) / Fold change /veh FAM167A (11723789_a_at) / RFU FAM26E (11764081_at) / Fold change /veh FAM26E (11764081_at) / RFU ISYNA1 (11749810_s_at) / Fold change /veh ISYNA1 (11749810_s_at) / RFU ACY1 (11761880_at) / Fold change /veh ACY1 (11761880_at) / RFU 11764098_at / Fold change /veh 11764098_at / RFU SAMD14 (11745864_x_at) / Fold change /veh SAMD14 (11745864_x_at) / RFU NPB (11741838_a_at) / Fold change /veh NPB (11741838_a_at) / RFU TMPRSS6 (11731388_a_at) / Fold change /veh TMPRSS6 (11731388_a_at) / RFU KRTAP10-2 (11738614_at) / Fold change /veh KRTAP10-2 (11738614_at) / RFU ARHGAP8 /// PRR5-ARHGAP8 (11727945_x_at) / Fold change /veh ARHGAP8 /// PRR5-ARHGAP8 (11727945_x_at) / RFU KRTAP5-7 /// NADSYN1 (11734609_at) / Fold change /veh KRTAP5-7 /// NADSYN1 (11734609_at) / RFU RASL12 (11751679_a_at) / Fold change /veh RASL12 (11751679_a_at) / RFU CDKN2B (11736163_a_at) / Fold change /veh CDKN2B (11736163_a_at) / RFU PRF1 (11729649_at) / Fold change /veh PRF1 (11729649_at) / RFU, ZNF638 /// ZNF638-IT1 / Fold change vs veh, ZNF638 /// ZNF638-IT1 / RFU, PANK3 / Fold change vs veh, PANK3 / RFU, SH3YL1 / Fold change vs veh, SH3YL1 / RFU, ZEB2 / Fold change vs veh, ZEB2 / RFU, NRIP1 / Fold change vs veh, NRIP1 / RFU, PTTG1IP / Fold change vs veh, PTTG1IP / RFU, CAPN2 / Fold change vs veh, CAPN2 / RFU, MED14 / Fold change vs veh, MED14 / RFU, SNORA58 / Fold change vs veh, SNORA58 / RFU, C1orf63 / Fold change vs veh, C1orf63 / RFU, LRRFIP1 / Fold change vs veh, LRRFIP1 / RFU, NDUFAF7 / Fold change vs veh, NDUFAF7 / RFU, SLC12A2 / Fold change vs veh, SLC12A2 / RFU, IBTK / Fold change vs veh, IBTK / RFU, ESF1 / Fold change vs veh, ESF1 / Fold change vs veh, TMEM50B / RFU, TAOK1 / Fold change vs veh, TAOK1 / RFU, ACBD3 / Fold change vs veh, ACBD3 / RFU, TMA16 / Fold change vs veh, TMA16 / RFU, RWDD3 / Fold change vs veh, RWDD3 / RFU, BCAT1 / Fold change vs veh, BCAT1 / RFU, EDEM3 / Fold change vs veh, EDEM3 / RFU, TMEM33 / Fold change vs veh, TMEM33 / RFU, WDR75 / Fold change vs veh, WDR75 / RFU, AHCTF1 / Fold change vs veh, AHCTF1 / RFU, TFRC / Fold change vs veh, TFRC / RFU, ZDHHC17 / Fold change vs veh, ZDHHC17 / RFU, NOM1 / Fold change vs veh, NOM1 / RFU, ARL8B / Fold change vs veh, ARL8B / RFU, ZBTB11 / Fold change vs veh, ZBTB11 / RFU, TAMM41 / Fold change vs veh, TAMM41 / RFU, KIAA1704 /// LOC100996395 / Fold change vs veh, KIAA1704 /// LOC100996395 / RFU, ING1 / Fold change vs veh, ING1 / RFU, TRMT61B / Fold change vs veh, TRMT61B / RFU, FUBP3 / Fold change vs veh, FUBP3 / RFU, TP53 / Fold change vs veh, TP53 / RFU, TNKS2 / Fold change vs veh, TNKS2 / RFU, ZFP14 / Fold change vs veh, ZFP14 / RFU, ACTR2 / Fold change vs veh, ACTR2 / RFU, PPP3R1 / Fold change vs veh, PPP3R1 / RFU, PIK3R1 / Fold change vs veh, PIK3R1 / RFU, HNRNPA1 / Fold change vs veh, HNRNPA1 / RFU, RNF170 / Fold change vs veh, RNF170 / RFU, ZNF28 / Fold change vs veh, ZNF28 / RFU, RNGTT / Fold change vs veh, RNGTT / RFU, OGT / Fold change vs veh, OGT / RFU, BRD1 / Fold change vs veh, BRD1 / RFU, MARS / Fold change vs veh, MARS / RFU, ZNF655 / Fold change vs veh, ZNF655 / RFU, FAHD1 / Fold change vs veh, FAHD1 / RFU, BDP1 / Fold change vs veh, BDP1 / RFU, LRRCC1 / Fold change vs veh, LRRCC1 / RFU, ARID1A / Fold change vs veh, ARID1A / RFU, ZNF146 / Fold change vs veh, ZNF146 / RFU, ZNF330 / Fold change vs veh, ZNF330 / RFU, GPN3 / Fold change vs veh, GPN3 / RFU, C9orf123 / Fold change vs veh, C9orf123 / RFU, N4BP2L2 / Fold change vs veh, N4BP2L2 / RFU, ARFIP1 / Fold change vs veh, ARFIP1 / RFU, FAM179B / Fold change vs veh, FAM179B / RFU, BCL10 / Fold change vs veh, BCL10 / RFU, UHRF1BP1L / Fold change vs veh, UHRF1BP1L / RFU, BET1 / Fold change vs veh, BET1 / RFU, CNOT2 / Fold change vs veh, CNOT2 / RFU, ZNF268 / Fold change vs veh, ZNF268 / Fold change vs veh, ZNF507 / RFU, DGCR2 / Fold change vs veh, DGCR2 / RFU, WDSUB1 / Fold change vs veh, WDSUB1 / Fold change vs veh, HSP90B1 /// MIR3652 / RFU, ADSS / Fold change vs veh, ADSS / RFU, GK / Fold change vs veh, GK / RFU, ZNF148 / Fold change vs veh, ZNF148 / RFU, TAF9 / Fold change vs veh, TAF9 / RFU, SLC1A5 / Fold change vs veh, SLC1A5 / RFU, SLMO2 / Fold change vs veh, SLMO2 / RFU, ABCC4 / Fold change vs veh, ABCC4 / RFU, LOC101060439 /// RAP1B / Fold change vs veh, LOC101060439 /// RAP1B / RFU, RFX7 / Fold change vs veh, RFX7 / RFU, GTPBP10 / Fold change vs veh, GTPBP10 / RFU, CNEP1R1 / Fold change vs veh, CNEP1R1 / RFU, BIVM-ERCC5 /// ERCC5 / Fold change vs veh, BIVM-ERCC5 /// ERCC5 / RFU, ILF3 / Fold change vs veh, ILF3 / RFU 11762660_at / Fold change /veh 11762660_at / RFU VCAN (11757783_s_at) / Fold change /veh VCAN (11757783_s_at) / RFU DDX43 (11728927_at) / Fold change /veh DDX43 (11728927_at) / RFU KRT8 (11758188_x_at) / Fold change /veh KRT8 (11758188_x_at) / RFU NKD1 (11759106_at) / Fold change /veh NKD1 (11759106_at) / RFU SRD5A1 (11742802_a_at) / Fold change /veh SRD5A1 (11742802_a_at) / RFU TPSAB1 /// TPSB2 (11721975_s_at) / Fold change /veh TPSAB1 /// TPSB2 (11721975_s_at) / RFU GSTM3 (11746129_a_at) / Fold change /veh GSTM3 (11746129_a_at) / RFU IL23R (11737362_x_at) / Fold change /veh IL23R (11737362_x_at) / RFU TMEM51 (11727254_a_at) / Fold change /veh TMEM51 (11727254_a_at) / RFU PIWIL2 (11732686_x_at) / Fold change /veh PIWIL2 (11732686_x_at) / RFU ORM1 (11744905_x_at) / Fold change /veh ORM1 (11744905_x_at) / RFU CCDC152 (11743942_at) / Fold change /veh CCDC152 (11743942_at) / RFU ECM1 (11717891_a_at) / Fold change /veh ECM1 (11717891_a_at) / RFU IL23R (11748794_a_at) / Fold change /veh IL23R (11748794_a_at) / RFU TNFAIP8L3 (11732012_x_at) / Fold change /veh TNFAIP8L3 (11732012_x_at) / RFU MBOAT4 (11741988_at) / Fold change /veh MBOAT4 (11741988_at) / RFU 11764193_at / Fold change /veh 11764193_at / RFU TMEM53 (11763286_at) / Fold change /veh TMEM53 (11763286_at) / RFU MAGEB2 (11727129_at) / Fold change /veh MAGEB2 (11727129_at) / RFU TMEM200A (11744735_a_at) / Fold change /veh TMEM200A (11744735_a_at) / RFU CCDC152 (11751479_a_at) / Fold change /veh CCDC152 (11751479_a_at) / RFU FAM211A (11726209_a_at) / Fold change /veh FAM211A (11726209_a_at) / RFU RGS16 (11746705_a_at) / Fold change /veh RGS16 (11746705_a_at) / RFU VCAN (11755009_s_at) / Fold change /veh VCAN (11755009_s_at) / RFU RHOB (11743442_s_at) / Fold change /veh RHOB (11743442_s_at) / RFU RGS16 (11720943_a_at) / Fold change /veh RGS16 (11720943_a_at) / RFU RGS16 (11720944_at) / Fold change /veh RGS16 (11720944_at) / RFU, VPS4B / Fold change vs veh, VPS4B / RFU, CREB1 / Fold change vs veh, CREB1 / RFU, DNAJC13 / Fold change vs veh, DNAJC13 / RFU, GNAQ / Fold change vs veh, GNAQ / RFU, CDK5R1 / Fold change vs veh, CDK5R1 / RFU, ZRANB3 / Fold change vs veh, ZRANB3 / RFU, CUL4A / Fold change vs veh, CUL4A / RFU, CCNY / Fold change vs veh, CCNY / RFU, UFL1 / Fold change vs veh, UFL1 / RFU, COG3 / Fold change vs veh, COG3 / RFU, DIAPH2 / Fold change vs veh, DIAPH2 / RFU, SKA2 / Fold change vs veh, SKA2 / RFU, AFF3 / Fold change vs veh, AFF3 / RFU, LMF1 / Fold change vs veh, LMF1 / RFU, IPO11 / Fold change vs veh, IPO11 / RFU, DFFB / Fold change vs veh, DFFB / RFU, FOXP1 / Fold change vs veh, FOXP1 / RFU, CARD8 / Fold change vs veh, CARD8 / RFU, STRN3 / Fold change vs veh, STRN3 / RFU, ADK / Fold change vs veh, ADK / RFU, RASSF2 / Fold change vs veh, RASSF2 / RFU, WIPF1 / Fold change vs veh, WIPF1 / RFU, LARP1B / Fold change vs veh, LARP1B / RFU, RASA1 / Fold change vs veh, RASA1 / RFU, RB1 / Fold change vs veh, RB1 / RFU, PPFIA1 / Fold change vs veh, PPFIA1 / RFU, MAT2A / Fold change vs veh, MAT2A / RFU, CCT5 / Fold change vs veh, CCT5 / RFU, WDR92 / Fold change vs veh, WDR92 / RFU, CUX1 / Fold change vs veh, CUX1 / RFU, TTC7A / Fold change vs veh, TTC7A / RFU, TMEM135 / Fold change vs veh, TMEM135 / RFU, DEPTOR / Fold change vs veh, DEPTOR / RFU, CPM / Fold change vs veh, CPM / RFU, DNAJB6 / Fold change vs veh, DNAJB6 / RFU, CACNA2D3 / Fold change vs veh, CACNA2D3 / RFU, DTX4 / Fold change vs veh, DTX4 / RFU, TFCP2 / Fold change vs veh, TFCP2 / RFU, GMCL1 /// GMCL1P1 / Fold change vs veh, GMCL1 /// GMCL1P1 / RFU, AEBP2 / Fold change vs veh, AEBP2 / RFU, SNHG1 /// SNORD22 /// SNORD25 /// SNORD26 /// SNORD27 /// SNORD28 /// SNORD29 /// SNORD31 / Fold change vs veh, SNHG1 /// SNORD22 /// SNORD25 /// SNORD26 /// SNORD27 /// SNORD28 /// SNORD29 /// SNORD31 / Fold change (Aza/veh), C12orf56 (ProbeSet 11735607_a_at) / Fold change (ACY-1035/veh), C12orf56 (ProbeSet 11735607_a_at) / Fold change (Aza/veh), FGFR1OP (ProbeSet 11751329_s_at) / Fold change (ACY-1035/veh), FGFR1OP (ProbeSet 11751329_s_at) / Fold change (Aza/veh), VPS36 (ProbeSet 11739960_a_at) / Fold change (ACY-1035/veh), VPS36 (ProbeSet 11739960_a_at) / RFU SYPL1 (11715823_x_at) / Fold change /veh SYPL1 (11715823_x_at) / RFU IGFBP7 (11715501_s_at) / Fold change /veh IGFBP7 (11715501_s_at) / RFU REEP3 (11722064_at) / Fold change /veh REEP3 (11722064_at) / RFU IGLL1 (11728026_x_at) / Fold change /veh IGLL1 (11728026_x_at): dose or concentration left out as unconfirmed
Conditions: ProbeSet 11721969_s_at; LIST B

Nc1ccc(-c2cccs2)cc1NC(=O)c1ccc2c(c1)cc(C1CC1)n2CCN1CCOCC1 [ACY-1035]
RFU, BDP1: 485.00 RFU
